The structures appear in SMILES notation. pIC50: −log10 of the molar value. Where a name gives a salt, the structure may show the parent alone.

The target in this assay is T1, human neutrophil elastase (Homo sapiens, UniProt P08246).
T1 sequence (P08246 30-267): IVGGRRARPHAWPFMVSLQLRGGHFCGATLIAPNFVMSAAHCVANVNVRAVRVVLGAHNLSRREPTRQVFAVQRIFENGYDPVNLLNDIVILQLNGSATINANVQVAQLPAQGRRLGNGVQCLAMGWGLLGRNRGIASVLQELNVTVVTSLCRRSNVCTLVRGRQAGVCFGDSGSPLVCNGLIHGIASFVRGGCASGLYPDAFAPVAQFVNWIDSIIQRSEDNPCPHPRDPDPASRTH
Description: In vitro assay of human neutrophil elastase (HNE). In kind it is biochemical. Particulars: 118 nM purified human neutrophil elastase, pH 8.6, 15 min incubation at 30° C., MeO-succinyl-alanyl-alanyl-prolyl-valyl-p-nitroanilide substrate; read-out: HNE IC50. In a few lines:
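Residual activity was taken as the 10 min rate of absorbance rise at 405 nm after adding 0.6 mM MeO-succinyl-AAPV-p-nitroanilide. Curve fitting of activity against concentration gave IC50.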
`CCC[C@H]1C(=O)N(S(=O)(=O)CC(F)(F)F)[C@H]2CCN(C(=O)CCN3CCCCC3)[C@H]12` (relative stereo) [Example 164, rel-(3R,3aR,6aS)-4-(3-Piperidin-1-yl-propionyl)-3-propyl-1-(2,2,2-trifluoro-ethanesulfonyl)-hexahydro-pyrrolo[3,2-b]pyrrol-2-one DL-tartrate]: the pIC50 (usually −log10 of the IC50, conventionally taken in molar units) is 6.38.

Take `CCC[C@H]1C(=O)N(S(=O)(=O)CC)[C@H]2CCN(S(=O)(=O)CCCN3CCCCC3)[C@H]12` (relative stereo) [Example 165, rel-(3R,3aR,6aS)-1-Ethanesulfonyl-4-(3-piperidin-1-yl-propane-1-sulfonyl)-3-propyl-hexahydro-pyrrolo[3,2-b]pyrrol-2-one DL-tartrate]: the pIC50 is 7.07.

For the compound `CCC[C@H]1C(=O)N(S(=O)(=O)C(C)C)[C@H]2CCN(S(=O)(=O)CCCN3CCCCC3)[C@H]12` (relative stereo) [Example 166, rel-(3R,3aR,6aS)-4-(3-Piperidin-1-yl-propane-1-sulfonyl)-1-(propane-2-sulfonyl)-3-propyl-hexahydro-pyrrolo[3,2-b]pyrrol-2-one DL-tartrate], the pIC50 is 6.54.

Regarding `CCCCS(=O)(=O)N1C(=O)[C@H](CCC)[C@@H]2[C@@H]1CCN2S(=O)(=O)CCCN1CCCCC1` (relative stereo) [Example 167, rel-(3R,3aR,6aS)-1-(Butane-1-sulfonyl)-4-(3-piperidin-1-yl-propane-1-sulfonyl)-3-propyl-hexahydro-pyrrolo[3,2-b]pyrrol-2-one DL-tartrate], the pIC50 is 7.42.

With `CCC[C@H]1C(=O)N(S(=O)(=O)c2cccc3nsnc23)[C@H]2CCN(C(=O)CCN3CCCCC3)[C@H]12` (relative stereo) [Example 168, rel-(3R,3aR,6aS)-1-(Benzo[1,2,5]thiadiazole-4-sulfonyl)-4-(3-piperidin-1-yl-propionyl)-3-propyl-hexahydro-pyrrolo[3,2-b]pyrrol-2-one DL-tartrate], the pIC50 was 6.68.

`CCC[C@H]1C(=O)N(S(=O)(=O)c2cccs2)[C@H]2CCN(C(=O)CCCCCN3CCCCC3)[C@H]12` (relative stereo) [Example 169, rel-(3R,3aR,6aS)-4-(6-Piperidin-1-yl-hexanoyl)-3-propyl-1-(thiophene-2-sulfonyl)-hexahydro-pyrrolo[3,2-b]pyrrol-2-one DL-tartrate]: the pIC50 is 7.54.

As for `CCC[C@H]1C(=O)N(S(=O)(=O)c2c(C)noc2C)[C@H]2CCN(C(=O)CCN3CCCCC3)[C@H]12` (relative stereo) [Example 170, rel-(3R,3aR,6aS)-1-(3,5-Dimethyl-isoxazole-4-sulfonyl)-4-(3-piperidin-1-yl-propionyl)-3-propyl-hexahydro-pyrrol[3,2-b]pyrrol-2-one DL-tartrate], the pIC50 was 6.74.

Regarding `CCC[C@H]1C(=O)N(S(=O)(=O)c2ccccn2)[C@H]2CCN(C(=O)CCN3CCCCC3)[C@H]12` (relative stereo) [Example 171, rel-(3R,3aR,6aS)-4-(3-Piperidin-1-yl-propionyl)-3-propyl-1-(pyridine-2-sulfonyl)-hexahydro-pyrrolo[3,2-b]pyrrol-2-one hydrochloride], the pIC50 was 7.41.

Turning to `CCC[C@H]1C(=O)N(S(=O)(=O)c2cccnc2)[C@H]2CCN(C(=O)CCN3CCCCC3)[C@H]12` (relative stereo) [Example 172, rel-(3R,3aR,6aS)-4-(3-Piperidin-1-yl-propionyl)-3-propyl-1-(pyridine-3-sulfonyl)-hexahydro-pyrrolo[3,2-b]pyrrol-2-one dihydrochloride], the pIC50 was 7.16.

For `CCC[C@H]1C(=O)N(S(C)(=O)=O)[C@H]2CCN(S(=O)(=O)c3ccc(CN4CCCCC4)cc3)[C@H]12` (relative stereo) [Example 194, rel-(3R,3aR,6aS)-1-Methanesulfonyl-4-(4-piperidin-1-ylmethyl-benzenesulfonyl)-3-propyl-hexahydro-pyrrolo[3,2-b]pyrrol-2-one hydrochloride], the pIC50 was 7.22.

With `CCC[C@H]1C(=O)N(S(C)(=O)=O)[C@H]2CCN(S(=O)(=O)c3ccc(CN4CCCCCC4)cc3)[C@H]12` (relative stereo) [Example 195, rel-(3R,3aR,6aS)-4-(4-Azepin-1-ylmethyl-benzenesulfonyl)-1-methanesulfonyl-3-propyl-hexahydro-pyrrolo[3,2-b]pyrrol-2-one hydrochloride], the pIC50 is 7.17.

Take `CCC[C@H]1C(=O)N(S(C)(=O)=O)[C@H]2CCN(S(=O)(=O)c3ccc(CN(C)C)cc3)[C@H]12` (relative stereo) [Example 196, rel-(3R,3aR,6aS)-4-(4-Dimethylaminomethyl-benzenesulfonyl)-1-methanesulfonyl-3-propyl-hexahydro-pyrrolo[3,2-b]pyrrol-2-one hydrochloride]: the negative-log IC50 (pIC50) was 7.47.

In the case of `CC(C)[C@H]1C(=O)N(S(C)(=O)=O)[C@H]2CCN(S(=O)(=O)c3ccc(CN(C)C)cc3)[C@H]12` (relative stereo) [Example 197, rel-(3R,3aR,6aS)-4-(4-Dimethylaminomethyl-benzenesulfonyl)-3-isopropyl-1-methanesulfonyl-hexahydro-pyrrolo[3,2-b]pyrrol-2-one hydrochloride], the negative logarithm of the IC50 (pIC50) is 6.82.

For the compound `CC(C)[C@H]1C(=O)N(S(C)(=O)=O)[C@H]2CCN(S(=O)(=O)c3ccc(CN4CCCCC4)cc3)[C@H]12` (relative stereo) [Example 198, rel-(3R,3aR,6aS)-3-Isopropyl-1-methanesulfonyl-(4-piperidin-1-ylmethyl-benzenesulfonyl)-hexahydro-pyrrolo[3,2-b]pyrrol-2-one hydrochloride], the pIC50 was 6.90.

Take `CC(C)[C@H]1C(=O)N(S(C)(=O)=O)[C@H]2CCN(S(=O)(=O)c3ccc(CN4CCCCCC4)cc3)[C@H]12` (relative stereo) [Example 199, rel-(3R,3aR,6aS)-4-(4-Azepin-1-ylmethyl-benzenesulfonyl)-3-isopropyl-1-methanesulfonyl-hexahydro-pyrrolo[3,2-b]pyrrol-2-one hydrochloride]: the pIC50 was 7.00.

`CCC[C@H]1C(=O)N(S(=O)(=O)c2ccc(C(F)(F)F)cc2)[C@H]2CCN(C(=O)CCCCCN3CCCCC3)[C@H]12` (relative stereo) [Example 202, rel-(3R,3aR,6aS)-4-(6-Piperidin-1-yl-hexanoyl)-3-propyl-1-(4-trifluoromethyl-benzenesulfonyl)-hexahydro-pyrrolo[3,2-b]pyrrol-2-one DL-tartrate]: the negative-log IC50 (pIC50) is 7.42.

Regarding `CCC[C@H]1C(=O)N(S(=O)(=O)c2ccc([N+](=O)[O-])cc2)[C@H]2CCN(C(=O)CCCCCN3CCCCC3)[C@H]12` (relative stereo) [Example 203, rel-(3R,3aR,6aS)-1-(4-Nitro-benzenesulfonyl)-4-(6-piperidin-1-yl-hexanoyl)-3-propyl-hexahydro-pyrrolo[3,2-b]pyrrol-2-one DL-tartrate], the pIC50 was 7.42.

With `CCCCOc1ccc(S(=O)(=O)N2C(=O)[C@H](CCC)[C@@H]3[C@@H]2CCN3C(=O)CCCCCN2CCCCC2)cc1` (relative stereo) [Example 204, rel-(3R,3aR,6aS)-1-(4-Butoxy-benzenesulfonyl)-4-(6-piperidin-1-yl-hexanoyl)-3-propyl-hexahydro-pyrrolo[3,2-b]pyrrol-2-one DL-tartrate], the pIC50 was 7.01.

Regarding `CCC[C@H]1C(=O)N(S(=O)(=O)c2ccc(C#N)cc2)[C@H]2CCN(C(=O)CCCCCN3CCCCC3)[C@H]12` (relative stereo) [Example 205, rel-4-[2-Oxo-4-(6-piperidin-1-yl-hexanoyl)-3R-propyl-hexahydro-(3aR,6aS)-pyrrolo[3,2-b]pyrrole-1-sulfonyl]-benzonitrile DL-tartrate], the pIC50 was 7.55.

In the case of `CCC[C@H]1C(=O)N(S(=O)(=O)c2ccccc2)[C@H]2CCN(C(=O)CCCCCN3CCCCC3)[C@H]12` (relative stereo) [Example 206, rel-(3R,3aR,6aS)-1-Benzenesulfonyl-4-(6-piperidin-1-yl-hexanoyl)-3-propyl-hexahydro-pyrrol[3,2-b]pyrrol-2-one DL-tartrate], the negative-log IC50 (pIC50) was 7.06.

Take `CCC[C@H]1C(=O)N(S(=O)(=O)c2ccc(Cl)cc2)[C@H]2CCN(C(=O)CCCCCN3CCCCC3)[C@H]12` (relative stereo) [Example 207, rel-(3R,3aR,6aS)-1-(4-Chloro-benzenesulfonyl)-4-(6-piperidin-1-yl-hexanoyl)-3-propyl-hexahydro-pyrrolo[3,2-b]pyrrol-2-one DL-tartrate]: the negative logarithm of the IC50 (pIC50) is 7.42.

With `CCC[C@H]1C(=O)N(S(=O)(=O)c2ccccc2)[C@H]2CCN(S(=O)(=O)CCCN3CCCCC3)[C@H]12` (relative stereo) [Example 208, rel-(3R,3aR,6aS)-1-Benzenesulfonyl-4-(3-piperidin-1-yl-propane-1-sulfonyl)-3-propyl-hexahydro-pyrrolo[3,2-b]pyrrol-2-one DL-tartrate], the negative logarithm of the IC50 (pIC50) is 7.27.

Turning to `CCC[C@H]1C(=O)N(S(=O)(=O)c2ccc(N)cc2)[C@H]2CCN(C(=O)CCCCCN3CCCCC3)[C@H]12` (relative stereo) [Example 209, rel-(3R,3aR,6aS)-1-(4-Amino-benzenesulfonyl)-4-(6-piperidin-1-yl-hexanoyl)-3-propyl-hexahydro-pyrrolo[3,2-b]pyrrol-2-one DL-tartrate], the pIC50 was 7.15.

For the compound `CC(=O)Nc1ccc(S(=O)(=O)N2CC[C@H]3[C@H]2[C@@H](C(C)C)C(=O)N3S(C)(=O)=O)cc1` (relative stereo) [Example 210, rel-N-[4-(6R-Isopropyl-4-methanesufonyl-5-oxo-hexahydro-(3aS,6aR)-pyrrolo[3,2-b]pyrrole-1-sulfonyl)-phenyl]-acetamide], the pIC50 is 6.99.

The values above are taken from US6215002A, “Pyrrolopyrrolone derivatives as inhibitors of neutrophil elastase” (priority 1996, dated 2001).
